{"source": "patent US11771692B2", "about": "“N-hydroxyethyl didehydroazapodophyllotoxins as GBP1 inhibitors and methods of overcoming treatment resistance in cancer” (The Board of Trustees of the Leland Stanford Junior …, priority 2018, dated 2023)", "key": {"[1]": {"tested_on": "SCC-90 tumor xenograft", "assay": "Head and neck SCC-90 tumor xenograft in nude mice", "assay_type": "in vivo", "details": "SCC-90, nude mice", "experimental": "An immunodeficient nude mice model was also used to study the in vivo potential of SU093 and SU056 for head and neck cancer. Nude mice (n=3/group) were subcutaneously injected in the right flank with 5×10^6 SCC-90 cells mixed with matrigel and observed regularly until the tumor size reached about 200 mm^3. The treatment regime with drugs including dose, formulation and route of delivery was similar to ovarian cancer study discussed above. Doses of SU093 and SU056 were administered daily until 35 days and mice were sacrificed thereafter. […] At the end of 35 days, calculated tumor volume/mouse was 860.33±21.78 mm^3, 694.67±14.64 mm^3, and 435.00±10.81 mm^3 for control, SU093 and SU056 treatment groups, respectively. This equates to a 20% and 50% reduction in tumor volume for SU093 and SU056 treatment groups, respectively. A decrease in tumor weight of about 21% (P value not significant) and 54% (P<0.002) was also observed for the SU093 and SU56 treatment groups, respectively."}, "[2]": {"tested_on": "SSC-90", "assay": "MTT cytotoxicity assay, SSC-90", "assay_type": "cell-based", "details": "Head and Neck, SSC-90, MTT assay", "description": "It was observed that SU093 was highly cytotoxic for all cell lines tested with IC50 values in the nanomolar range."}, "[3]": {"tested_on": "OVCAR8 cells", "assay": "Active mitochondrial mass (MitoTracker Red CMXRos) in OVCAR8 cells", "assay_type": "cell-based", "description": "(§1) FIG. 4, panel A illustrates a histogram of cell cycle distribution of propidium iodide (PI)-stained cells. […] FIG. 4, panel C illustrates the effect of SU093 on cell cycle and cell death regulators analyzed by immunostaining. FIG. 4, panel D illustrates mitochondria stained with MitoTracker Red CMXRos and visualized by confocal microscopy indicating mitochondrial dysfunction in OVCAR8 cells. FIG. 4, panel E illustrates the effect of SU093 on active mitochondrial mass in OVCAR8 cells.\n(§2) Furthermore, OVCAR8 cells with overexpressed (OV) and knockdown (KD) of GBP1 gene were created (FIG. 3, panel D) and cell viability experiments were performed on GBP1-WT (wild-type), GBP1-OV and GBP1-KD OVCAR8 cells at different doses of SU093."}, "[4]": {"tested_on": "OVCAR8 cells", "assay": "Cell cycle analysis and cell cycle/cell death regulators in OVCAR8 cells", "assay_type": "cell-based", "description": "as §1, §2\nIt has been previously established that GBP1 expression has a definitive role in the resistance towards radiation therapy and taxane-based chemotherapy. The GBP1 inhibitor SU093 was tested in combination with radiation and paclitaxel (a well known taxane-based chemotherapeutic drug) for its potential in overcoming radiation therapy and taxane resistance. […] A cell cycle analysis experiment for radiation was performed with SU093 and combination treatment (FIG. 5, panel B). […] One of the mechanisms through which a drug can sensitize the effect of radiation is its ability to block G2/M phase of the cell cycle (Leonard, C. E.; Chan, D. C.; Chou, T. C.; Kumar, R.; Bunn, P. A., Paclitaxel enhances in vitro radiosensitivity of squamous carcinoma cell lines of the head and neck. Cancer Research 1996, 56 (22), 5198-5204). […]"}}, "note": "Entries after “also recorded” stand apart in the source; their conditions may differ.", "data": [{"smiles": "COc1ccc2c(c1)N(CCO)C1=C(C(=O)OC1)C2c1ccccc1", "note": "(centres unmarked) [SU093]", "values": [{"measurement": "tumor volume/mouse", "setting": "[1]; 20 mg/kg IP daily, end of 35 days", "value": "694.67±14.64", "unit": "mm^3"}, {"measurement": "decrease in tumor weight", "setting": "[1]; 35 days, vs control", "value": "about 21%"}, {"measurement": "reduction in tumor volume", "setting": "[1]; 35 days, vs control", "value": 20, "unit": "%"}, {"measurement": "IC50", "setting": "[2]", "value": 3.23, "unit": "nM"}, {"measurement": "active mitochondrial mass", "setting": "[3]", "value": "significantly diminished active mitochondrial mass"}, {"measurement": "cell cycle distribution", "setting": "[4]; OVCAR8, SU093 alone", "value": "G1 phase arrest; also recorded: progression from G1 to S phase was markedly inhibited"}, {"measurement": "cell cycle distribution, combination of SU093 and radiation", "setting": "[4]; OVCAR8, combination with radiation", "value": "G2/M phase arrest leading to apoptosis; also recorded: G2/M phase arrest leading to apoptotic cell death"}, {"measurement": "cell cycle and cell death regulators", "setting": "[4]; OVCAR8, cyclin D1, CDK2, Bax", "value": "reduction in cyclin D1 and CDK2 levels and elevation of the cell death regulator Bax"}]}]}
